The target in the assay is T1, human serum albumin (HSA) (Homo sapiens, UniProt P02768).
T1 construct: gene ALB
Briefly: X-ray crystal structure at […] Å (seven molecules seen in the HSA Fe complex adduct). The class given is binding.

We go through one molecule from publication PMC9081768, “Spectroscopy, Structure, Biomacromolecular Interactions, and Antiproliferation Activity of a Fe(II) Complex With DPA-Bpy as Pentadentate Ligand” (Frontiers in Chemistry, 2022).

T1 sequence (P02768 25-609): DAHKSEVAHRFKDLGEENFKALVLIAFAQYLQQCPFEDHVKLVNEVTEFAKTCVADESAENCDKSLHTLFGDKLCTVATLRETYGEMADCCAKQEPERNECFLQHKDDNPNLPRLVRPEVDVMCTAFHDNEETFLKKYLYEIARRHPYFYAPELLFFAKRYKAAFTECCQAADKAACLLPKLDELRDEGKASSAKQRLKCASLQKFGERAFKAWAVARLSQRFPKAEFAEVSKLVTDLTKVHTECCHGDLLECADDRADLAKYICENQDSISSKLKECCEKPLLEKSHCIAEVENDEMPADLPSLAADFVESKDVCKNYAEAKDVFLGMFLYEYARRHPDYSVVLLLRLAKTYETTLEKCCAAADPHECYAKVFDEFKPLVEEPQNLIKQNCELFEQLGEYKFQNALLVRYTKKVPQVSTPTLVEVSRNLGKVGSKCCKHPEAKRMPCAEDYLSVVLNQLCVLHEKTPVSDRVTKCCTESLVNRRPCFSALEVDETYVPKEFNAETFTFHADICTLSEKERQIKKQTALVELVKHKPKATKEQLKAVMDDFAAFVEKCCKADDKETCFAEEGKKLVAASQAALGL

On to `CCCCCCCCCCCCCCCC(=O)O` [PA, palmitic acid], for which the “X-ray crystal structure at 2.4 Å (seven molecules seen in the HSA Fe complex add)” value was “seven palmitic acid (PA) molecules are present in the subdomains of I–III”.
